From paper PMC9124818 (Pharmacology Research & Perspectives, 2022)
pIC50: −log10 of the molar value.

Experiments:
CYP2D6 = CYP2D6 (Homo sapiens, UniProt P10635); details: CYP2D6‐dependent dextromethorphan O‐demethylation; ref 35 von Moltke et al.; cited from earlier work
CYP1A2 = molecular target: T1, CYP1A2 (Homo sapiens, UniProt P05177); details: ref 35 von Moltke et al.; cited from earlier work
T1 sequence (P05177 1-516): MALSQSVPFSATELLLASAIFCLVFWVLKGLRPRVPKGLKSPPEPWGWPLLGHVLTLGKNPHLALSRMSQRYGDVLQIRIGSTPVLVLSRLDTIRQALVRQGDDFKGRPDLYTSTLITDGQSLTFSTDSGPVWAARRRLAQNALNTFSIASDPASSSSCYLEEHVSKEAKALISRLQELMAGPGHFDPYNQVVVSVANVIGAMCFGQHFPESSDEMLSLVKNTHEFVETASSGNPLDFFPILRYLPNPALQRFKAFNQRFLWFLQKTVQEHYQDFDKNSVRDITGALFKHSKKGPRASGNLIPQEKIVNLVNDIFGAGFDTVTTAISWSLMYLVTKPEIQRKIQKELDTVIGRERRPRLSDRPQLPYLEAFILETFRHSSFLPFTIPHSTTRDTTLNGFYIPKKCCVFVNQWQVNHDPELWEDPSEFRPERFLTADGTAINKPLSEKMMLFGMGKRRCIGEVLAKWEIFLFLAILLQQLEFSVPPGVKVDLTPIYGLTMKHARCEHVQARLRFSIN

CYP2C9 = CYP2C9 (Homo sapiens, UniProt P11712); details: ref 35 von Moltke et al.; cited from earlier work
Chain of CYP2C9 (P11712 whole entry): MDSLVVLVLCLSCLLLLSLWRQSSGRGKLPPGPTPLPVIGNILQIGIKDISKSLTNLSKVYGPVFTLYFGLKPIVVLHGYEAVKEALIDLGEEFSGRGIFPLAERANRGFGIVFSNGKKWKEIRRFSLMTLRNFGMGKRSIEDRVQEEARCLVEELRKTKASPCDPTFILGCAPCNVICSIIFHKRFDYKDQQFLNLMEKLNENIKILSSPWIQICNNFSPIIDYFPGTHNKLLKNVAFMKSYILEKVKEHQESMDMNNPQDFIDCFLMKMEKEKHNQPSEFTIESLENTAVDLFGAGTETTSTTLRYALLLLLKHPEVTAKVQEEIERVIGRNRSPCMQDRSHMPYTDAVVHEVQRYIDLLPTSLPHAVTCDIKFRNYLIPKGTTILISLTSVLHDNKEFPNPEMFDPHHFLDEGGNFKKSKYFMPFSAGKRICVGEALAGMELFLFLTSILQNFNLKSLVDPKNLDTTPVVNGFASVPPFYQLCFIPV

CYP3A = details: ref 35 von Moltke et al.; cited from earlier work
CYP1A2 mRNA = test: CYP450 induction in cultured human hepatocytes, mRNA by qRT-PCR; format: cell-based; details: human, hepatocytes, 3 days, 50 μM
Experimental: Each PCR was performed in triplicate.

Chain of CYP2D6 (P10635 whole entry): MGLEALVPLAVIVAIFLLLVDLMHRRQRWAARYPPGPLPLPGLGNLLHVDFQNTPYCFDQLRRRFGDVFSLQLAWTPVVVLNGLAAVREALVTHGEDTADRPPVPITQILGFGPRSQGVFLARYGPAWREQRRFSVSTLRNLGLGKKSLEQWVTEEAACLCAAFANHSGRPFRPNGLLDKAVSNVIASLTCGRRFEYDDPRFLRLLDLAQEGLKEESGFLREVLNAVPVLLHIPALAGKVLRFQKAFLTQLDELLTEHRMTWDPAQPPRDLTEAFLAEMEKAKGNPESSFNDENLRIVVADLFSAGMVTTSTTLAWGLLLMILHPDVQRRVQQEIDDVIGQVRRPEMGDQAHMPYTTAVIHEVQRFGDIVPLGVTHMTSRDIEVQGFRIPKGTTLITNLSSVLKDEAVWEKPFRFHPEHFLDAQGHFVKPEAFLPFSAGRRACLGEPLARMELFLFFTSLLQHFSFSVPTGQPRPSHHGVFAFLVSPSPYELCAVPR

| Structure (SMILES) | pIC50 (CYP2D6) | inhibitor potential (CYP1A2) | inhibitor potential (CYP2C9) | inhibitor potential (CYP3A) | increase in CYP1A2 mRNA levels (CYP1A2 mRNA) |
| --- | --- | --- | --- | --- | --- |
| CCN[C@H](C)Cc1cccc(C(F)(F)F)c1 [L‐FFA] | 4.82 | weak or negligible inhibitor potential | weak or negligible inhibitor potential | weak or negligible inhibitor potential |  |
| CCN[C@@H](C)Cc1cccc(C(F)(F)F)c1 [D‐FFA] | 4.82 | weak or negligible inhibitor potential | weak or negligible inhibitor potential | weak or negligible inhibitor potential |  |
| COc1ccc2[nH]c([S+]([O-])Cc3ncc(C)c(OC)c3C)nc2c1 (stereo not drawn) [Omeprazole, omeprazole, reference compound] |  |  |  |  | 32.7-52.5 fold |
